The values that follow come from ChEMBL document CHEMBL4339230, “X-ray Crystallography Deciphers the Activity of Broad-Spectrum Boronic Acid β-Lactamase Inhibitors” (ACS Med Chem Lett, 2019).

A short description of test [1]: Inhibition of Pseudomonas aeruginosa AmpC expressed in Escherichia coli BL21(DE3) using cephalothin as reporter substrate incubated for 300 secs by spectrophotometric assay.
A short description of test [2]: Inhibition of Klebsiella pneumoniae KPC2 using cephalothin as reporter substrate incubated for 300 secs by spectrophotometric assay.
A short description of test [3]: Competitive inhibition of recombinant GES-5 expressed in Escherichia coli BL21(DE3) using nitrocefin substrate by spectrophotometry.
Test [4] is described as follows: Inhibition of bacterial OXA-24 using cephalothin as reporter substrate incubated for 300 secs by spectrophotometric assay. Also noted: species or system Bacteria.
The nature of test [5]: Inhibition of bacterial NDM1 using cephalothin as reporter substrate incubated for 300 secs by spectrophotometric assay. Also noted: species or system Bacteria.

pKi: −log10 of the molar value.

As for `CC(C)(C)OC(=O)c1cccc2cc(B(O)O)sc12`, the negative logarithm of the Ki (pKi) in test [1] was 5.89; in test [2], 5.49; in test [3] it was 4.77; in test [4], 4.57; in test [5] it was 5.49.

With `NCc1ccc2sc(B(O)O)cc2c1`, the negative-log Ki (pKi) in test [1] is 7.30; in test [2], 5.36; in test [3] it was 4.82; in test [4], 4.02; in test [5] it was 5.26.

Consider `CC(C)(C)OC(=O)Nc1cccc2cc(B(O)O)sc12`, for which the negative logarithm of the Ki (pKi) was 5.85 in test [1]; 5.85 in test [2]; 5.24 in test [3]; 4.19 in test [4]; 4.96 in test [5].

Turning to `O=C(O)c1cccc2cc(B(O)O)sc12`, the negative-log Ki (pKi) is 6.38 in test [1]; 5.31 in test [2]; 6.80 in test [3]; 4.80 in test [4]; 5.52 in test [5].

Take `O=CN(C=O)Cc1ccc2sc(B(O)O)cc2c1`: the pKi in test [1] was 7.40; in test [3] it was 4.62.

For the molecule `OB(O)c1cc2cc(CBr)ccc2s1`, the pKi in test [1] is 7.15; in test [2] it was 5.55; in test [3] it was 5.05; in test [4] it was 4.17; in test [5], 5.23.
